Measurements: patent US6046228A, “Anti-viral pharmaceutical compositions containing saturated 1,2-dithiaheterocyclic compounds and uses thereof” (priority 1999, dated 2000)
Where two headings read alike, the source gives them in different places.

What was measured:
HIV-1ADA = experiment: antiviral assay in monocyte-macrophage cultures (p24); type: cell-based
Protocol: Initial anti-HIV screening was performed with CEM-SS cells and HIV-1RFusing the XTT cytoprotection assay as previously described (Weislow et al., J. National Cancer Inst. 81: 577-586, (1989)). HIV-1 isolates included common laboratory stains (RF, IIIB and MN), as well as a panel of HIV-1 clinical isolates (Cushman et al., J. Med. Chem. 37: 3040-3050, (1994)). The pyridone-resistant HIV-1A17 isolate (Nunberg et al., J. Virol., 65: 4887-4892 (1991)) was obtained from Emilio Emini at Merck Sharpe and Dohme Laboratories. Phytohemagglutinin-stimulated human peripheral blood lymphocytes (PBLs) and fresh monocyte-macrophage (Mono/MF) cultures were prepared and utilized in antiviral assays as previously described (Rice et al., Proc. Nat'l. Academy Science, USA 90: 9721-9724, (1993)); (Cushman et al., J. Med. Chem. 37: 3040-3050, (1994)). EC50 values for these cultures indicate the drug concentration that provided a 50% reduction in viral p24 production. […] The compounds can be synthesized according to the teachings of Singh et al., Sulfur Letters 8: 107-114, (1988). The 4,5-cis-dihydroxy(1,1-dioxy-1,2,-dithiohexane) compound (NSC 624151) has been abbreviated as 624151 for convenience. MT-2, MT-4, U1, HeLa-CD4-LTR-β-gal and 174xCEM cells were obtained from the AIDS Research and Reference Program (National Institute of Allergy and Infectious Disease, National Institutes of Health, Bethesda, Md. USA), as were the HIV-2MS and the AZT-resistant HIV-1G910-6 isolates. […]

CEM-SS cells = experiment: XTT assay, cytotoxicity (IC50), CEM-SS cells; type: cell-based; conditions: Homo sapiens, CEM-SS, cytotoxicity, CEM-SS cells; read-out: XTT Assay IC50
Protocol: (§1) Initial anti-HIV screening was performed with CEM-SS cells and HIV-1RFusing the XTT cytoprotection assay as previously described (Weislow et al., J. National Cancer Inst. 81: 577-586, (1989)). HIV-1 isolates included common laboratory stains (RF, IIIB and MN), as well as a panel of HIV-1 clinical isolates (Cushman et al., J. Med. Chem. 37: 3040-3050, (1994)). The pyridone-resistant HIV-1A17 isolate (Nunberg et al., J. Virol., 65: 4887-4892 (1991)) was obtained from Emilio Emini at Merck Sharpe and Dohme Laboratories. Phytohemagglutinin-stimulated human peripheral blood lymphocytes (PBLs) and fresh monocyte-macrophage (Mono/MF) cultures were prepared and utilized in antiviral assays as previously described (Rice et al., Proc. Nat'l. Academy Science, USA 90: 9721-9724, (1993)); (Cushman et al., J. Med. Chem. 37: 3040-3050, (1994)). EC50 values for these cultures indicate the drug concentration that provided a 50% reduction in viral p24 production. […] The compounds can be synthesized according to the teachings of Singh et al., Sulfur Letters 8: 107-114, (1988). […] MT-2, MT-4, U1, HeLa-CD4-LTR-β-gal and 174xCEM cells were obtained from the AIDS Research and Reference Program (National Institute of Allergy and Infectious Disease, National Institutes of Health, Bethesda, Md. USA), as were the HIV-2MS and the AZT-resistant HIV-1G910-6 isolates.
(§2) Racemate and enantiomers of the cis-1,1-dioxo[1,2]dithiane-4,5-diol were synthesized and evaluated for antiviral activity in the XTT assay as described hereinabove.

[1] = system: monocyte-macrophage (Mo/M.PHI.) cultures; experiment: cytotoxicity in monocyte-macrophage cultures; type: cell-based
Protocol: Initial anti-HIV screening was performed with CEM-SS cells and HIV-1RFusing the XTT cytoprotection assay as previously described (Weislow et al., J. National Cancer Inst. 81: 577-586, (1989)). HIV-1 isolates included common laboratory stains (RF, IIIB and MN), as well as a panel of HIV-1 clinical isolates (Cushman et al., J. Med. Chem. 37: 3040-3050, (1994)). The pyridone-resistant HIV-1A17 isolate (Nunberg et al., J. Virol., 65: 4887-4892 (1991)) was obtained from Emilio Emini at Merck Sharpe and Dohme Laboratories. Phytohemagglutinin-stimulated human peripheral blood lymphocytes (PBLs) and fresh monocyte-macrophage (Mono/MF) cultures were prepared and utilized in antiviral assays as previously described (Rice et al., Proc. Nat'l. Academy Science, USA 90: 9721-9724, (1993)); (Cushman et al., J. Med. Chem. 37: 3040-3050, (1994)). EC50 values for these cultures indicate the drug concentration that provided a 50% reduction in viral p24 production. […] The compounds can be synthesized according to the teachings of Singh et al., Sulfur Letters 8: 107-114, (1988). The 4,5-cis-dihydroxy(1,1-dioxy-1,2,-dithiohexane) compound (NSC 624151) has been abbreviated as 624151 for convenience. MT-2, MT-4, U1, HeLa-CD4-LTR-β-gal and 174xCEM cells were obtained from the AIDS Research and Reference Program (National Institute of Allergy and Infectious Disease, National Institutes of Health, Bethesda, Md. USA), as were the HIV-2MS and the AZT-resistant HIV-1G910-6 isolates.

HIV-1RF = experiment: XTT cytoprotection (cytopathicity) anti-HIV assay, CEM-SS cells; type: cell-based; conditions: for EC50: Human immunodeficiency virus 1, CEM-SS; for antiviral activity / efficacy: in words
Protocol: as §1, §2

HIV-1 p7NC protein = biological target: T1, HIV-1 p7NC protein (Human immunodeficiency virus type 1 group M subtype B, UniProt P04591); experiment: Trp37 zinc finger fluorescence assay (zinc ejection from p7NC); type: biochemical; conditions: in words; for zinc ejection: FIG. 1(A)
T1 construct: recombinant HIV-1 p7NC protein
Protocol: Fluorescence measurements of the Trp^37 residue in the C-terminal zinc finger of the recombinant HIV-1 p7NC protein were performed as previously described (Rice et al., Science 270:1194, 1995). The p7NC protein was prepared at 20 μg/ml in 10 mM sodium phosphate buffer (pH 7.0), treated with 25 μM of each compound, then after indicated time intervals the samples were diluted 1/10 in 10 mM sodium phosphate buffer (pH 7.0) and the fluorescence intensity measured. The excitation and emission wavelengths utilized with the Shimadzu RF5000 spectrofluorimeter were 280 nm and 351 nm, respectively. In an alternate assay, the zinc-selective fluorescent probe N-(6-methoxy-8quinolyl-)-p-toluenesulfonamide (TSQ, Molecular Probes, Eugene, Oreg.) originally described by Fredrickson (J. Neurosci. Meth. 20:91, 1987) was utilized to measure zinc released from the p7NC protein in vitro. Briefly, 2 μM recombinant HIV-1 p7NC protein in 10 mM sodium phosphate buffer, pH 7.0, 10% glycerol was treated with 10 μM 624151 ([…] total volume in 96-well plates), and the time-dependent increase in fluorescence was measured on a Labsystems Fluoroskan II (360 nm excitation filter and 460 nm emission filter) over a period of 2 hours. Induction of alterations of p7NC proteins within intact virions involved treatment of HIV-1MN for 1 hour at 37° C. with 25 μM test compound. Samples were centrifuged 1 hour at 4° C. under 18,000×g to pellet the virus from the drug. Virus pellets were resolved by non-reducing SDS-PAGE and analyzed by immunoblot using monospecific rabbit antisera to the purified p7NC protein.
^b The percent decrease in RFU was calculated based on measurement of
the initial fluorescence of the p7NC protein before and 10 minutes after
treatment with the 25 μM of compound at ambient temperature.
The ability of 624151 to chemically interact with the zinc fingers of the HIV-1 p7NC protein was initially determined by a fluorescence assay (Rice et al., Science 270:1194-1197, (1995)) that measures a loss in intrinsic fluorescence of the tryptophan (Trp^37) residue in the second finger of the protein that occurs upon loss of zinc from the finger (Summers et al., Protein Sci. 1:563, 1992). […] As the 624151 modifies the zinc finger thiolates and the zinc is ejected over time, the metal is bound by the TSQ fluorochrome (FIG. 1(B)).
Sodium Phosphate buffer, pH 7.0 in 1 ml was treated with 25 μM of
compound. At indicated times, the mixture was diluted 1/10 and the
relative fluorescence units (RFU) measured in a Shimadzu RF5000
spectrofluorimeter with […] and Em = 351 mn. Following
loss of zinc from the Cterminal zinc finger, the Trp37 residue folds away
from the # aqueous environment and experiences a loss of fluorescence.

[2] = Human immunodeficiency virus 1, read-out: Mo/M.PHI. EC50
[3] = CEM-SS cells, HIV-1RF, read-out: XTT Assay EC50

Row | SMILES | EC50 (HIV-1ADA; [2]) [µM] | IC50 (CEM-SS cells) [µM] | IC50 [1] [µM] | other results
1 | [O-][S+]1CCCCS1 (stereo not drawn) [NSC 56224] | > 100 | 26.2 | > 100 | 
2 | O=S1(=O)CC(CO)(CO)CS1 [NSC 661127] |  | 378 |  | EC50 (HIV-1RF; [3]): 34 µM
3 | [O-][S+]1C[C@@H](O)[C@H](O)CS1 (relative stereo) [NSC 663603] | > 100 | 59.3 | > 100 | 
4 | [O-][S+]1CC(CO)(CO)CS1 (stereo not drawn) [NSC 661753] | 46 | > 200 | > 100 | 
5 | CC(=O)O[C@H]1CSS(=O)(=O)C[C@H]1OC(C)=O (relative stereo) [NSC 667091] | 25 | 9.2 | > 100 | 
6 | CC(=O)OCC1(COC(C)=O)CSS(=O)(=O)C1 [NSC 661126] | 21 | 30.3 | > 100 | EC50 (HIV-1RF; [3]): 9.8 µM
7 | CC(C)OC(=O)c1cc(NC(=S)OC(C)C)ccc1Cl [UC38, reference compound] |  |  |  | zinc ejection (HIV-1 p7NC protein): do not
8 | CC(=O)O[C@@H]1CSSC[C@H]1OC(C)=O (relative stereo) [NSC 667092] | > 100 | > 200 | > 100 | reactivity with the zinc fingers (HIV-1 p7NC protein): essentially a complete loss of reactivity with the zinc fingers; antiviral activity / efficacy (HIV-1RF): complete abolition of antiviral activity
9 | CSC[C@H](NC(=O)COc1cccc2cnccc12)C(=O)N[C@@H](Cc1ccccc1)[C@H](O)C(=O)N1CSC[C@H]1C(=O)NC(C)(C)C [KNI-272, reference compound] |  |  |  | zinc ejection (HIV-1 p7NC protein): do not
10 | OCC1(CO)CSSC1 [NSC 72270] | > 100 | > 200 | > 100 | 
11 | O[C@@H]1CSSC[C@@H]1O [NSC 667089] | > 100 | 20.1 | > 100 | 
12 | Nc1ccn([C@H]2CC[C@@H](CO)O2)c(=O)n1 [DDC, reference compound] |  |  |  | zinc ejection (HIV-1 p7NC protein): do not
13 | O=S1(=O)CCCCS1 [NSC 627175] | 25 | 5.7 | > 100 | 
14 | O=S1(=O)C[C@@H](O)[C@H](O)CS1 (relative stereo) [NSC 624152] |  | 135 | > 100 | reactivity with the zinc fingers (HIV-1 p7NC protein): equivalent reactivity with the zinc fingers; EC50 (HIV-1ADA; Human immunodeficiency virus 1, HIV-1ADA, monocyte/macrophage cultures, 50% reduction in p24, read-out: Mo/M.PHI. EC50): 9.1 µM; EC50 (HIV-1RF; [3]): 13.1 µM; antiviral activity / efficacy (HIV-1RF): only a slight reduction in the antiviral efficacy
15 | CC(=O)O[C@@H]1CS[S+]([O-])C[C@H]1OC(C)=O (relative stereo) [NSC 667094] | 5.5 | 22.1 | > 100 | 
16 | NC1(C(=O)O)CSSC1 [NSC 212561] |  | 10.7 |  | EC50 (HIV-1RF; [3]): 3.06 µM
17 | O=C1NC(=O)C2(CSSC2)N1 [NSC 208750] |  | 24.8 |  | EC50 (HIV-1RF; [3]): 1.83 µM
18 | NC(=O)NN=C1CSSC1 [NSC 208744] |  | 127 |  | EC50 (HIV-1RF; [3]): 28.7 µM
19 | CC(=O)O[C@H]1CSSC[C@H]1OC(C)=O [NSC 667093] | > 100 | > 200 | > 100 | 
20 | [O-][S+]1C[C@@H](O)[C@@H](O)CS1 (relative stereo) [NSC 667090] | > 100 | 103 | > 100 | reactivity with the zinc fingers (HIV-1 p7NC protein): essentially a complete loss of reactivity with the zinc fingers; antiviral activity / efficacy (HIV-1RF): complete abolition of antiviral activity
21 | CC(=O)OCC1(COC(C)=O)CS[S+]([O-])C1 (stereo not drawn) [NSC 661754] | > 100 | 14.3 | > 100 | 
22 | CC(=O)OCC1(COC(C)=O)CSSC1 [NSC 660167] | > 100 | > 200 | > 100 | 
23 | O=C(O)CCCCC1CCSS1 (stereo not drawn) [NSC 628502] |  | > 1210 |  | EC50 (HIV-1RF; read-out: XTT Assay EC50, CEM-SS cells, HIV-1RF): 590 µM
24 | O[C@@H]1CSSC[C@H]1O (relative stereo) [NSC 663605] | > 100 | > 200 | > 100 | 
